From patent publication US12351590B2, “Pyrrolopyrimidine compound and use thereof” (GUANGZHOU JOYO PHARMATECH CO., LTD., priority 2019, dated 2025)
pIC50: −log10 of the molar value. Each block holds one compound with its values, some of them ahead of it.

Legend:
[1] = system: rat adjuvant-induced arthritis model; assay: Adjuvant-induced arthritis (AIA) in rats, in-vivo pharmacodynamic study; parameters: species or system Lewis rats; conditions: for Inhibition on area under the clinical score curve, AUC (%): oral, 2 times daily, female Lewis rats; for Mean clinical arthritis score: 10 mg/kg group
Protocol: The compounds disclosed herein were tested for their efficacy on arthritis using a rat adjuvant-induced arthritis model. Female, 160- and 180-gram Lewis rats were anesthetized with isoflurane and injected subcutaneously with 0.1 mL of Mycobacterium tuberculosis suspension in the left hind paw. The animals were grouped and administered with the compounds 13 days after modeling. The test compound 1-13 was dissolved in a mixed vehicle of [5% DMSO, 95% (12% SBE-β-CD), 0.5% MC]. The female Lewis rats were orally administered 2 times daily (8 animals in each group).

JAK1(h) = JAK1(h) (Homo sapiens (Human), UniProt P23458); assay: In vitro activity assay of JAK1 kinase (radiometric [γ-33P]-ATP); type: biochemical; conditions: recombinant human JAK1
Protocol: (§1) Recombinant human JAK1, JAK2, JAK3 and TYK2 […], and main instruments and reagents were provided by Eurofins, UK
(§2) JAK2, JAK3 and TYK2 dilutions: 20 mM 3-(N-morpholino)propanesulfonic acid (MOPS), 1 mM EDTA, 0.01% Brij-35.5% glycerol, 0.1% β-mercaptoethanol, 1 mg/mL BSA; JAK1 dilution: 20 mM TRIS, 0.2 mM EDTA, 0.1% β-mercaptoethanol, 0.01% Brij-35.5% glycerol. All compounds were prepared in 100% DMSO and brought to 50 fold the final assay concentration. The test compounds were serially 3-fold diluted to 9 concentrations from 10 μM to 0.001 μM with DMSO content in the assay reaction being 2%. Working stock solutions of the compounds were added to the assay wells as the first component of the reaction, and then the remaining components were added according to the assay protocol detailed below.
(§3) JAK1(h) was incubated with 20 mM Tris/HCl pH 7.5, 0.2 mM EDTA, 500 μM MGEEPLYWSFPAKKK, 10 mM magnesium acetate and [γ-^33P]-ATP (activity and concentration were determined as required). The reaction was started by adding the Mg/ATP mixture and terminated by adding 0.5% phosphoric acid after 40 min of incubation at room temperature. 10 μL of the reaction mixture was then added dropwise on a P30 filter pad and washed three times with 0.425% phosphoric acid and once with methanol within 4 minutes, dried and analyzed using a scintillation counter.

TYK2(h) = TYK2(h) (Homo sapiens (Human), UniProt P29597); assay: In vitro activity assay of TYK2 kinase (radiometric [γ-33P]-ATP); type: biochemical; conditions: recombinant human TYK2
Protocol: as §1, §2
as §3, with “TYK2(h)” for “JAK1(h)”, “8” for “20”, “MOPS” for “Tris/HCl”, “7.0,” for “7.5,”, “250” for “500”, “GGMEDIYFEFMGGKKK,” for “MGEEPLYWSFPAKKK,”

JAK3(h) = JAK3(h) (Homo sapiens (Human), UniProt P52333); assay: In vitro activity assay of JAK3 kinase (radiometric [γ-33P]-ATP); type: biochemical; conditions: recombinant human JAK3
Protocol: as §1, §2
as §3, with “JAK3(h)” for “JAK1(h)”, “8” for “20”, “MOPS” for “Tris/HCl”, “7.0,” for “7.5,”, “GGEEEEYFELVKKKK,” for “MGEEPLYWSFPAKKK,”

[2] = Pharmacokinetic (PK) study in mice; type: in vivo, mice (C57BL/6); conditions: male C57BL/6 mice
Protocol: Clear solutions obtained by dissolving the test compounds were administered to male mice (C57BL/6) or rats (SD) by tail vein injection and oral gavage (overnight fasting, 7-8 weeks old). After the administration of the test compounds, plasma was separated from blood collected from the mandibular vein and centrifugation at 0.117, 0.333, 1, 2, 4, 7 and 24 h for the intravenous injection group (1 mg/kg), and at 0.25, 0.5, 1, 2, 4, 8 and 24 h for the oral gavage group (3 mg/kg). The plasma concentration was measured by LC-MS/MS method, and the relevant pharmacokinetic parameters were calculated by WinNonlin™ Version 6.3 pharmacokinetic software using non-compartmental model linear logarithmic trapezoid method.

JAK2(h) = JAK2(h) (Homo sapiens (Human), UniProt O60674); assay: In vitro activity assay of JAK2 kinase (radiometric [γ-33P]-ATP); type: biochemical; conditions: recombinant human JAK2
Protocol: as §1, §2
as §3, with “JAK2(h)” for “JAK1(h)”, “8” for “20”, “MOPS” for “Tris/HCl”, “7.0,” for “7.5,”, “100” for “500”, “[…],” for “MGEEPLYWSFPAKKK,”

Caco-2 cells = system: Caco-2 cells
Protocol: The transport buffer solution was HBSS (Hanks' balanced salt solution) and 10 mM HEPES [N-(2-hydroxyethyl)piperazine-N′-(2-ethanesulfonic acid)], pH 7.40±0.05; Caco-2 cells were purchased from ATCC.
Caco-2 cells were seeded at 1×10^5 cells/cm^2 in polyethylene terephthalate (PET) 96-well BD insert plates, and the medium was refreshed every 4-5 days until day 21-28 to form a confluent monolayer. Test compounds were tested in a two-way format at 2 μM in duplicate. Digoxin was added at 10 μM in the two-way format, and nadolol and metoprolol were added at 2 μM in the two-way format. Final DMSO concentration was adjusted to less than 1%. The plates were incubated in a CO2 incubator at 37±1° C. for 2 h and at 5% CO2 and saturated humidity without shaking. All samples were mixed with acetonitrile containing an internal standard, centrifuged at 4000 rpm for 10 min. 100 microliters of supernatant was diluted with 100 microliters of distilled water for LC/MS/MS analysis. By LC/MS/MS analysis, the concentrations of the test compounds and the reference compound in the initial test compound solution, the test compound solution and the test article solution using the peak area ratio of the analyte to the internal standard. After the transport test, the integrity of the Caco-2 cell monolayer was determined by fluorescein yellow exclusion reaction, and the apparent permeability coefficient and efflux ratio were calculated.

[3] = i.v. 1 mg/kg and oral gavage 3 mg/kg groups, route not given

Sequence of TYK2(h) (P29597 whole entry): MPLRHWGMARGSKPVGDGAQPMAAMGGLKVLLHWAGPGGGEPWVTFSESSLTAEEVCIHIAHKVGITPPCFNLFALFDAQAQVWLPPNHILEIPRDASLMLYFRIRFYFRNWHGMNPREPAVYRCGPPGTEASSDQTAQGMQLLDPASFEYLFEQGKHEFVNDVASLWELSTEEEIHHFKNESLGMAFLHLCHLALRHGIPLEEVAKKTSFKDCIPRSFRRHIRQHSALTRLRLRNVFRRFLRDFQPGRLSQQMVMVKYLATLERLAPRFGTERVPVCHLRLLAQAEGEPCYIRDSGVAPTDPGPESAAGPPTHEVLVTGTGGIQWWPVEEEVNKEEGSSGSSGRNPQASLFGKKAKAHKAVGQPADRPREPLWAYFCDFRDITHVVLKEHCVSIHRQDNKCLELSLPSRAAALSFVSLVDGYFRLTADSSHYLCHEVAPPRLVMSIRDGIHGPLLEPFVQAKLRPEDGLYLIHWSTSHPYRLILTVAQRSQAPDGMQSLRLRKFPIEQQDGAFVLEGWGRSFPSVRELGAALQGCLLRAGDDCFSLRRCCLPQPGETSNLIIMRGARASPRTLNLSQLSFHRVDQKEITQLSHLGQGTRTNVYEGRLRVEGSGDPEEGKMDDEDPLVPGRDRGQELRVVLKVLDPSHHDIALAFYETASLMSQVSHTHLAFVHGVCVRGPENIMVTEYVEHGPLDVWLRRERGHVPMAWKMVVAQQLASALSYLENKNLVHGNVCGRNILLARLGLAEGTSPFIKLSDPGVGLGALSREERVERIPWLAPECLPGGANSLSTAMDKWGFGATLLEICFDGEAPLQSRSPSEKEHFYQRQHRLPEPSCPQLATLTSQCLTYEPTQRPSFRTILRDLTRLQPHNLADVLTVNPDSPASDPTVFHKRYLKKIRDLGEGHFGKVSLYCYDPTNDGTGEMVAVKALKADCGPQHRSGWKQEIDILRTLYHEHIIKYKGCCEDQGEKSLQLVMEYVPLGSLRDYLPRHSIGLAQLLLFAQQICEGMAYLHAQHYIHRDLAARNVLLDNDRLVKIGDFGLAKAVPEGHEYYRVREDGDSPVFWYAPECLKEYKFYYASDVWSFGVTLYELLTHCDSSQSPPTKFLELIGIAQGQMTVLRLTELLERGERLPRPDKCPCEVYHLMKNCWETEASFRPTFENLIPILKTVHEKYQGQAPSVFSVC
Sequence of JAK2(h) (O60674 whole entry): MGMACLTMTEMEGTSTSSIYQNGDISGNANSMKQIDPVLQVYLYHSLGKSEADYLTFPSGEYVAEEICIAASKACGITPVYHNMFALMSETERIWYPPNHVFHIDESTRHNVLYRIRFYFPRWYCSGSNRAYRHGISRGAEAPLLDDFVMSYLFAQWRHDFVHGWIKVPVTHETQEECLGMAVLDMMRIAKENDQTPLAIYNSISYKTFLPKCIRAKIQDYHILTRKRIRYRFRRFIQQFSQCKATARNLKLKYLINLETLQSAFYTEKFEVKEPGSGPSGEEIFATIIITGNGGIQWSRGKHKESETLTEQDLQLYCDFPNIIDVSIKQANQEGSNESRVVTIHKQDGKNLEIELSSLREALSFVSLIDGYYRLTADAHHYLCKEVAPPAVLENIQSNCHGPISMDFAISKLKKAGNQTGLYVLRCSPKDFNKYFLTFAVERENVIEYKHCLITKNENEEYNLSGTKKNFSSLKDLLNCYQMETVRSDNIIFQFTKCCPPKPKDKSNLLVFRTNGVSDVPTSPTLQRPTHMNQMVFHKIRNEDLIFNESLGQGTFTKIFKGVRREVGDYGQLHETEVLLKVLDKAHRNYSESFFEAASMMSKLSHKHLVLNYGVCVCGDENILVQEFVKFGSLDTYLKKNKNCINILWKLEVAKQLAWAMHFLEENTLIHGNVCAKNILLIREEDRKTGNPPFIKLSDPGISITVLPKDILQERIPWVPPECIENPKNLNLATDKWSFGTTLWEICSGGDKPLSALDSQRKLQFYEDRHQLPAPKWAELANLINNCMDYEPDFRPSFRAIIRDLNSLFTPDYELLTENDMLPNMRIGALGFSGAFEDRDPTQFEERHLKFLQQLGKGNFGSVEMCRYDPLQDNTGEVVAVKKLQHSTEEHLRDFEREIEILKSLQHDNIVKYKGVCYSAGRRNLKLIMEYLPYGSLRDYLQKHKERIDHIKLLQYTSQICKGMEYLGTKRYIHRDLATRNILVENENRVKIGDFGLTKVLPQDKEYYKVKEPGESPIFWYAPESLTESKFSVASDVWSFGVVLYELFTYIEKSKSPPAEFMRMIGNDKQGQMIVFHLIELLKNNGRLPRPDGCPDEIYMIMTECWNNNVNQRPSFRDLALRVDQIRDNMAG
Sequence of JAK3(h) (P52333 whole entry): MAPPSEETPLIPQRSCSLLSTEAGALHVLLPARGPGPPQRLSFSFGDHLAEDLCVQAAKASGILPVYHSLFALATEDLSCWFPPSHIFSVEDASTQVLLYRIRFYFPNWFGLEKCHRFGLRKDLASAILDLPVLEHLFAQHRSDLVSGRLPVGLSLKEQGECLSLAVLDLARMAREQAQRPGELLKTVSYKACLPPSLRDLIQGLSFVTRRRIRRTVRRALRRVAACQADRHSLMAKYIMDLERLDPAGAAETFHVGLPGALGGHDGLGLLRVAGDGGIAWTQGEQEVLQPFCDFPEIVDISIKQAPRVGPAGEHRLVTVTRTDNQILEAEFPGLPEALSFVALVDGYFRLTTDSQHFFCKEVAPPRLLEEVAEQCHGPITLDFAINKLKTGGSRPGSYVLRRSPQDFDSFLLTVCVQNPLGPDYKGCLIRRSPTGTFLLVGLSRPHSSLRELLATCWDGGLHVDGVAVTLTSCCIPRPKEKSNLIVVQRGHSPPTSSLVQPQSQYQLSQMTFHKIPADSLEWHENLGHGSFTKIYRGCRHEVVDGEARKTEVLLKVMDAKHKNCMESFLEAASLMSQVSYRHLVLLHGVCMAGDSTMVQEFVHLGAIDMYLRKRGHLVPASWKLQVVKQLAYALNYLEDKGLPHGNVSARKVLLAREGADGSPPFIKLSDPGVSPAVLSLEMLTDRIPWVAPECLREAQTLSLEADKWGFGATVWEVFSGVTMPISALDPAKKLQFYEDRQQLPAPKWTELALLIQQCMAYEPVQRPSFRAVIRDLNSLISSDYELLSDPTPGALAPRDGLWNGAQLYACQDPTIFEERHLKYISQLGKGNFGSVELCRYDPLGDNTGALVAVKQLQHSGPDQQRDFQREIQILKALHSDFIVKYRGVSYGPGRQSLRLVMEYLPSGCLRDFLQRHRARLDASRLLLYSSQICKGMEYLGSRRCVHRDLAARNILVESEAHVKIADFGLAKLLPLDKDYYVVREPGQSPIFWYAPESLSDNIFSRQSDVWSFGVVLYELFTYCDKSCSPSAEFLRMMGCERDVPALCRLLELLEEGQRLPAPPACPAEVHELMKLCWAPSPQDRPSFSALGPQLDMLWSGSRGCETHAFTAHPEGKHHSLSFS
Sequence of JAK1(h) (P23458 whole entry): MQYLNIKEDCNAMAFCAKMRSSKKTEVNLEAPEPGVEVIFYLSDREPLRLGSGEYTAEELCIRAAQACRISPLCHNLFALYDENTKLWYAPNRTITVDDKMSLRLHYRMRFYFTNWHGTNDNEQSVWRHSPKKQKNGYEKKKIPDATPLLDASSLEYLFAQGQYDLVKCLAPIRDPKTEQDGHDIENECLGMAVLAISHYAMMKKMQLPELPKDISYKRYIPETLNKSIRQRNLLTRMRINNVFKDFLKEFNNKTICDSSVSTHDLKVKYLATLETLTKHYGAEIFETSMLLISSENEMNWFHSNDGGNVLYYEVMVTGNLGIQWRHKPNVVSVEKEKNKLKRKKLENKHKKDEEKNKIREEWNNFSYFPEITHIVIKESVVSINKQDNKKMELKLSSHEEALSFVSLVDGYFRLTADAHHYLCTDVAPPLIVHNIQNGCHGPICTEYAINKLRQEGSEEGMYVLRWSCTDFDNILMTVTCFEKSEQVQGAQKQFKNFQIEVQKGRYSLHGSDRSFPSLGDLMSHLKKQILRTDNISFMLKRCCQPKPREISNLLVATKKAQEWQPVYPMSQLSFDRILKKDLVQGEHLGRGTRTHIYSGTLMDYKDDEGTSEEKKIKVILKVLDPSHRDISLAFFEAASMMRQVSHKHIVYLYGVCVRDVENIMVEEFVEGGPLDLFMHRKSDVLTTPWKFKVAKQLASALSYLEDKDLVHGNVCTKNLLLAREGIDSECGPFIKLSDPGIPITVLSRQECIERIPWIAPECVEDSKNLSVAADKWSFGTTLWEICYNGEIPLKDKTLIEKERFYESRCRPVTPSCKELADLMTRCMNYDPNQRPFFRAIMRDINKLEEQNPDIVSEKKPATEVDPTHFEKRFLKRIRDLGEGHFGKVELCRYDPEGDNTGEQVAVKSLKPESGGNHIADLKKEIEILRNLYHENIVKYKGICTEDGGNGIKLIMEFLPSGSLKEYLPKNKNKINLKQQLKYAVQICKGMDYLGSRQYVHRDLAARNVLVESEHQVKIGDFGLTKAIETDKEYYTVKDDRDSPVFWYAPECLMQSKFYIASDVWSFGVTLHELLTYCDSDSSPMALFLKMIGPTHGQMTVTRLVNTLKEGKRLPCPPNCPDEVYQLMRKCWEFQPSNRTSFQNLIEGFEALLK

Compound: CN(c1ncnc2[nH]ccc12)[C@@H]1CCc2cc(C#N)nn2C1 [Compound 1-13]
Effect on the weight loss trend of animals caused by disease attack ([1]; 3 mg/kg and 10 mg/kg, vs solvent control group, significant difference since day 20): significant relieving effect
Therapeutic effect (inhibition rate versus vehicle control) ([1]; 3 mg/kg and 10 mg/kg, P<0.0001 versus vehicle control): significant therapeutic effect
Inhibition on area under the clinical score curve, AUC (%) ([1]; 3 mg/kg): 49.6%
Mean clinical arthritis score ([1]; day 13 (start of dosing)): 6 points
Mean clinical arthritis score ([1]; day 27 (study endpoint)): 1.4 points
Inhibition on area under the clinical score curve, AUC (%) ([1]; 10 mg/kg): 60.5%
Increase in clinical arthritis score ([1]; dose-dependent, 3 and 10 mg/kg): inhibited
Increase in paw volume ([1]; dose-dependent, 3 and 10 mg/kg): inhibited
pIC50 (JAK1(h)): 9.00
pIC50 (TYK2(h)): 7.82
pIC50 (JAK3(h)): 6.93
AUC0-inf [2, 3]: 12.765 µM·h
Cmax [2, 3]: 6 µM
T1/2 [2, 3]: 1.89 h
Bioavailability (%) ([2]; oral gavage 3 mg/kg vs i.v. 1 mg/kg): 88.4%
pIC50 (JAK2(h)): 8.10
Efflux ratio (Caco-2 cells; Caco-2): 1.09
Mean apparent permeability coefficient Mean Papp (10^−6 cm/s) A to B (Caco-2 cells; Caco-2, pH 7.4): 28.58 10^−6 cm/s
Mean apparent permeability coefficient Mean Papp (10^−6 cm/s) B to A (Caco-2 cells; Caco-2, pH 7.4): 31.18 10^−6 cm/s

Mean apparent permeability coefficient Mean Papp (10^−6 cm/s) A to B (Caco-2 cells; Caco-2, pH 7.4): 0.16 10^−6 cm/s
Compound: CC(C)(C)NCC(O)COc1cccc2c1CC(O)C(O)C2 (centres unmarked) [Nadolol, reference compound]
